This is an account of results in patent US20240262807A1, “COMPOUND USED AS BCR-ABL INHIBITOR” (CHIA TAI TIANQING PHARMACEUTICAL GROUP CO., LTD., priority 2021, published 2024).

One assay deals with K562 cells. As to the kind of experiment: Inhibitory effect of compounds on proliferation of K562 cells (CCK-8). As to conditions: Homo sapiens, 72 h with compound, CCK-8, 5% serum. The assay is classed as cell-based. As to the method: K562 cells in logarithmic growth phase and good cell condition were added to a centrifuge tube and centrifuged at 1000 rpm for 5 min in a low speed centrifuge. […] The cells were seeded on a 96-well plate at 100 µL/well using a multi-channel pipette and cultured in a cell incubator at 37° ° C. 5% CO2 and saturated humidity. […] Inhibition rate (%)=(mean value of negative control group−mean value of experimental group)/(mean value of negative control group−mean value of blank group)×100%. A dose-response curve was fitted by four-parameter analysis, with the logarithm of compound concentration serving as abscissa and inhibition rate serving as ordinate, such that IC50 was calculated.

For assay [1], the target named is T1, Ba/F3-BCR-ABL1-T315I-C3 cells (Homo sapiens, UniProt P00519, T315I, cells depend on it).
T1 construct: fused on or other part: P11274 (Breakpoint cluster region protein)
As to the kind of experiment: Inhibitory effect of compounds on proliferation of BCR-ABL T315I-transfected Ba/F3 cells (CCK-8). It is filed as cell-based. As to conditions: 72 h with compound, CCK-8, 5% serum, read-out: IC50 (nM) Ba/F3-BCR-ABL1 T315I. As for the experimental part:
Ba/F3-BCR-ABL1-T315I-C3 cells in logarithmic growth phase and good cell condition were added to a centrifuge tube and centrifuged at 1000 rpm for 5 min in a low speed centrifuge. The supernatant was discarded, and 5 mL of complete medium (RPMI 1640 basic medium+10% FBS) was added using a pipette for cell resuspension. The cells were counted using a cell counter, diluted with complete medium to a cell density of 6×10^4 cells/mL, and an equivalent amount of RPMI 1640 basic medium was added to adjust the serum concentration to 5% and the cell density to 3×10^4 cells/mL for plate seeding. The cells were seeded on a 96-well plate at 100 μL/well using a multi-channel pipette and cultured in a cell incubator at 37° C. 5% CO2 and saturated humidity. After 24 h incubation, compounds were loaded using a nanoliter pipettor, 8 concentrations (1000 nM, 250 nM, 63 nM, 16 nM, 3.9 nM, 0.98 nM, 0.24 nM, 0.061 nM) were set for each compound, and 2 replicate wells were set for each concentration; cells with no compounds added were taken as a negative control, and a plating medium with no cells added was taken as a blank control. After 72 h. […] Inhibition rate (%)=(mean value of negative control group−mean value of experimental group)/(mean value of negative control group−mean value of blank group)×100%. A dose-response curve was fitted by four-parameter analysis, with the logarithm of compound concentration serving as abscissa and inhibition rate serving as ordinate, such that ICso was calculated.

With `Cn1ccc(-c2cc(C(=O)Nc3ccc(OC(F)(F)Cl)cc3)cnc2N2CC[C@H](Cl)C2)cc1=O` [Compound 4], the IC50 (in general, the concentration that gives 50% inhibition) in the assay on K562 cells stood at 16 nM. Moreover, in assay [1], the GI50 came out at 21 nM.
Consider `Cn1ccc(-c2cc(C(=O)Nc3ccc(OC(F)(F)Cl)cc3)cnc2N2CC3(COC3)C2)cc1=O` [Compound 5], for which the IC50 with K562 cells is 16 nM. Also, the GI50 in assay [1] was found to be 28 nM.
With `O=C(Nc1ccc(OC(F)(F)Cl)cc1)c1cnc(N2CCOCC2)c(-c2ccn(CCO)c(=O)c2)c1` [Compound 8], the IC50 in the assay on K562 cells was determined as 52 nM. Further, in assay [1], the GI50 is 23 nM.
In the case of `CCn1ccc(-c2cc(C(=O)Nc3ccc(OC(F)(F)Cl)cc3)cnc2N2CCOCC2)cc1=O` [Compound 9], the concentration for half-maximal inhibition (IC50) in the assay on K562 cells is 9.3 nM.
For `Cn1ccc(-c2cc(C(=O)Nc3ccc(OC(F)(F)Cl)cc3)cnc2N2CC[C@@H](O)C2)cc1=O` [Compound 11], in the assay with K562 cells, the half-inhibitory concentration (IC50) is 12 nM. In addition, in assay [1], the GI50 is 54 nM.
For the compound `Cn1ccc(-c2cc(C(=O)Nc3ccc(OC(F)(F)Cl)cc3)cnc2N2CC[C@H](F)C2)cc1=O` [Compound 17], the IC50 with K562 cells came out at 13 nM. For the same compound, the GI50 in assay [1] amounted to 33 nM.
The matching figures for `Cn1ccc(-c2cc(C(=O)Nc3ccc(OC(F)(F)Cl)cc3)cnc2N2CC[C@@H](Cl)C2)cc1=O` [Compound 18]: 4.9 nM and 8.1 nM.
In the case of `Cn1ccc(-c2cc(C(=O)Nc3ccc(OC(F)(F)Cl)cc3)cnc2N2C3COCC2C3)cc1=O` [Compound 20], the IC50 in the assay with K562 cells came to 31 nM. For the same compound, the GI50 in assay [1] is 38 nM.
For `Cn1ccc(-c2cc(C(=O)Nc3ccc(OC(F)(F)Cl)cc3)cnc2N2C[C@H]3C[C@@H]2CO3)cc1=O` [Compound 21], in assay [1], the GI50 turned out to be 20 nM.
For `Cn1ccc(-c2cc(C(=O)Nc3ccc(OC(F)(F)Cl)cc3)cnc2N2C[C@@H]3C[C@H]2CO3)cc1=O` [Compound 22], the GI50 in assay [1] came out at 35 nM.
Take `Cn1ccc(-c2cc(C(=O)Nc3ccc(OC(F)(F)Cl)cc3)cnc2N2CC3CC(C2)O3)cc1=O` [Compound 23]: the IC50 with K562 cells came out at 10 nM. In addition, the GI50 in assay [1] was determined as 18 nM.
For the compound `Cn1ccc(-c2cc(C(=O)Nc3ccc(OC(F)(F)Cl)cc3)cnc2N2CCC3(CC2)COC3)cc1=O` [Compound 24], the IC50 in the assay on K562 cells came out at 6.3 nM. In assay [1], the GI50 came out at 12 nM.
On to `Cn1ccc(-c2cc(C(=O)Nc3ccc(OC(F)(F)Cl)cc3)cnc2N2CC(C#N)C2)cc1=O` [Compound 25], for which the IC50 with K562 cells was 9 nM. The GI50 in assay [1] amounted to 20 nM.
As for `Cn1ccc(-c2cc(C(=O)Nc3ccc(OC(F)(F)Cl)cc3)cnc2N2CC(C)(O)C2)cc1=O` [Compound 26], the IC50 with K562 cells was 26 nM. Further, the GI50 in assay [1] came out at 53 nM.
For `Cn1ccc(-c2cc(C(=O)Nc3ccc(OC(F)(F)Cl)cc3)cnc2N2C[C@H](O)[C@@H](F)C2)cc1=O` [Compound 27], in that order: 18 nM and 67 nM.
For `Cn1ccc(-c2cc(C(=O)Nc3ccc(OC(F)(F)Cl)cc3)cnc2N2CC3CC3C2)cc1=O` (centres unmarked) [Compound 28], in that order: 6.5 nM and 11 nM.
The matching figures for `Cn1ccc(-c2cc(C(=O)Nc3ccc(OC(F)(F)Cl)cc3)cnc2N2CCCO2)cc1=O` [Compound 29]: 6.8 nM and 12 nM.
As for `Cn1ccc(-c2cc(C(=O)Nc3ccc(OC(F)(F)Cl)cc3)cnc2N2CC[C@H](C#N)C2)cc1=O` [Compound 30], in the assay on K562 cells, the IC50 stood at 10 nM. Further, in assay [1], the GI50 stood at 18 nM.
With `Cn1ccc(-c2cc(C(=O)Nc3ccc(OC(F)(F)Cl)cc3)cnc2N2CC[C@@H](C#N)C2)cc1=O` [Compound 31], the IC50 in the assay on K562 cells came to 12 nM. Also, the GI50 in assay [1] is 21 nM.
On to `Cn1cc(Cl)c(-c2cc(C(=O)Nc3ccc(OC(F)(F)Cl)cc3)cnc2N2CCOCC2)cc1=O` [Compound 33], for which, in the assay with K562 cells, the IC50 amounted to 4.9 nM. For the same compound, the GI50 in assay [1] stood at 9.1 nM.
With `Cn1ccc(-c2cc(C(=O)Nc3ccc(OC(F)(F)Cl)cc3)cnc2N2CC3CCC(C2)O3)cc1=O` [Compound 34], the half-inhibitory concentration (IC50) in the assay on K562 cells was 20 nM. In addition, the GI50 in assay [1] amounted to 7.8 nM.
For `Cn1ccc(-c2cc(C(=O)Nc3ccc(OC(F)(F)Cl)cc3)cnc2N2C3CCC2COC3)cc1=O` [Compound 35], in that order: 16 nM and 13 nM.
Consider `O=C(Nc1ccc(OC(F)(F)Cl)cc1)c1cnc(N2C3CCC2COC3)c(-c2cnn3c2COCC3)c1` [Compound 37], for which, in the assay on K562 cells, the half-maximal inhibitory concentration (IC50) was 7.8 nM. Also, the GI50 in assay [1] was found to be 16 nM.
Consider `O=C(Nc1ccc(OC(F)(F)Cl)cc1)c1cnc(N2C[C@H]3C[C@@H]2CO3)c(-c2cnn3c2COCC3)c1` [Compound 38], for which the GI50 in assay [1] is 5.7 nM.
With `O=C(Nc1ccc(OC(F)(F)Cl)cc1)c1cnc(N2C[C@@H]3C[C@H]2CO3)c(-c2cnn3c2COCC3)c1` [Compound 40], the GI50 in assay [1] is 7.4 nM.
On to `Cn1cnc(-c2cc(C(=O)Nc3ccc(OC(F)(F)Cl)cc3)cnc2N2CC(O)C2)cc1=O` [Compound 48], for which the IC50 in the assay on K562 cells was found to be 13 nM.
Take `Cn1cnc(-c2cc(C(=O)Nc3ccc(OC(F)(F)Cl)cc3)cnc2N2C3CCC2COC3)cc1=O` [Compound 49]: the IC50 with K562 cells was determined as 10 nM.
Consider `Cn1cnc(-c2cc(C(=O)Nc3ccc(OC(F)(F)Cl)cc3)cnc2N2CC3CCC(C2)O3)cc1=O` [Compound 50], for which the IC50 in the assay on K562 cells amounted to 10 nM.
As to `Cn1cnc(-c2cc(C(=O)Nc3ccc(OC(F)(F)Cl)cc3)cnc2N2C[C@H]3C[C@@H]2CO3)cc1=O` [Compound 51], the IC50 with K562 cells is 13 nM.
Regarding `Cn1cnc(-c2cc(C(=O)Nc3ccc(OC(F)(F)Cl)cc3)cnc2N2CC3CC(C2)O3)cc1=O` [Compound 52], the IC50 with K562 cells stood at 6.1 nM.
For the compound `COCCNc1ncc(C(=O)Nc2ccc(OC(F)(F)Cl)cc2)cc1-c1cc(=O)n(C)cn1` [Compound 55], in the assay on K562 cells, the half-maximal inhibitory concentration (IC50) worked out at 26 nM.
For `C[C@H]1COCCN1c1ncc(C(=O)Nc2ccc(OC(F)(F)Cl)cc2)cc1-c1cc(=O)n(C)cn1` [Compound 57], in the assay with K562 cells, the IC50 was determined as 59 nM.
Turning to `CNc1ncc(C(=O)Nc2ccc(OC(F)(F)Cl)cc2)cc1-c1cc(=O)n(C)cn1` [Compound 62], in the assay on K562 cells, the IC50 was 18 nM.
`Cn1cnc(-c2cc(C(=O)Nc3ccc(OC(F)(F)Cl)cc3)cnc2-n2ccnc2)cc1=O` [Compound 66]: the IC50 with K562 cells amounted to 31 nM.
Take `Cn1cnc(-c2cc(C(=O)Nc3ccc(OC(F)(F)Cl)cc3)cnc2-c2ccn[nH]2)cc1=O` [Compound 69]: the IC50 in the assay on K562 cells was found to be 47 nM.
Turning to `COCCOc1ncc(C(=O)Nc2ccc(OC(F)(F)Cl)cc2)cc1-c1cc(=O)n(C)cn1` [Compound 70], the IC50 with K562 cells was 95 nM.
For the compound `COc1ncc(C(=O)Nc2ccc(OC(F)(F)Cl)cc2)cc1-c1cc(=O)n(C)cn1` [Compound 71], the IC50 with K562 cells was 43 nM.
On the same count and under the same terms, in the case of `Cn1nccc1-c1ncc(C(=O)Nc2ccc(OC(F)(F)Cl)cc2)cc1-c1cc(=O)n(C)cn1` [Compound 73] it was 14 nM; in that of `Cn1cnc(-c2cc(C(=O)Nc3ccc(OC(F)(F)Cl)cc3)cnc2-n2cccn2)cc1=O` [Compound 77], 13 nM.
As to `CN(C)c1ncc(C(=O)Nc2ccc(OC(F)(F)Cl)cc2)cc1-c1cc(=O)n(CC2CCOCC2)cn1` [Compound 78], the IC50 in the assay with K562 cells was found to be 46 nM.
`Cn1cnc(-c2cc(C(=O)Nc3ccc(OC(F)(F)Cl)cc3)cnc2N2C[C@@H](F)[C@H](F)C2)cc1=O` [Compound 79]: the IC50 in the assay with K562 cells stood at 17 nM.
For `Cn1cnc(-c2cc(C(=O)Nc3ccc(OC(F)(F)Cl)cc3)cnc2N2CCCO2)cc1=O` [Compound 80], in the assay with K562 cells, the IC50 was found to be 14 nM.
`CON(C)c1ncc(C(=O)Nc2ccc(OC(F)(F)Cl)cc2)cc1-c1cc(=O)n(C)cn1` [Compound 81]: the IC50 in the assay on K562 cells was found to be 10 nM.
Regarding `Cn1cc(-c2cc(C(=O)Nc3ccc(OC(F)(F)Cl)cc3)cnc2N2CCOCC2)ncc1=O` [Compound 82], in the assay with K562 cells, the IC50 was 57 nM.
With `Cn1cc(-c2cc(C(=O)Nc3ccc(OC(F)(F)Cl)cc3)cnc2N2CCOCC2)ccc1=O` [Compound 84], the IC50 in the assay with K562 cells is 45 nM.
The same measure, in the same setting: in the case of `Cn1ncc(-c2cc(C(=O)Nc3ccc(OC(F)(F)Cl)cc3)cnc2N2C[C@H]3C[C@@H]2CO3)cc1=O` [Compound 88] it was 10 nM; in that of `O=C(Nc1ccc(OC(F)(F)Cl)cc1)c1cnc(N2C3COCC2C3)c(-c2cnn3c2COCC3)c1` [Compound 92], 15 nM.
`C[C@@H]1COCCN1c1ncc(C(=O)Nc2ccc(OC(F)(F)Cl)cc2)cc1-c1cnn2c1COCC2` [Compound 93]: the IC50 in the assay on K562 cells came out at 12 nM.
Same read-out and setting: the same measure for `CN1Cc2nc(-c3cc(C(=O)Nc4ccc(OC(F)(F)Cl)cc4)cnc3N3CC[C@@H](O)C3)[nH]c2C1=O` [Compound 95]: 39 nM; for `CN1CCc2oc(-c3cc(C(=O)Nc4ccc(OC(F)(F)Cl)cc4)cnc3N3CC[C@@H](O)C3)cc2C1=O` [Compound 101]: 10 nM.
On to `O=C(Nc1ccc(OC(F)(F)Cl)cc1)c1cnc(N2CC[C@@H](O)C2)c(-c2cc3nccn3[nH]2)c1` [Compound 102], for which the GI50 in assay [1] was determined as 76 nM.
